In patent US10421779B2, “Carbazole compound having anti-virus activity” (priority 2016, dated 2019):

system: HCV genotype 1 b (HCV replicon system); test: HCV replicon system genotype 1b, Renilla luciferase activity; type: cell-based; conditions: Hepatitis C virus, 72 h; HCV genotype 1b replicon, Rluc, 3 days; range limits given with own units (pM to nM); read-out: Replicon EC50 1b type
Procedure: From human liver cells (Huh7.5.1 cell) infected by hepatitis C virus, the anti-virus effects by the compound of the present invention were measured. From HCV genotype 1 b (HCV replicon system), genotype 2a (HCV cell culture system, HCVcc), and genotype 3a, the EC50 values were measured.
In order to measure the EC50 value from HCV genotype 1 b, the degrees of HCV replication inhibitory activities of an experimental compound were measured. The EC50 value was measured by treating the experimental compound with the HCV replicon systems (genotype 1 b) having Renilla luciferase (Rluc) genes and genotype 1 b non-structure genes under various concentration conditions to compare the activity degree of the luciferase after 3 days elapsed time with that of the control.

Q: Which EC50 does the source give for `COCCOCCn1c2cc(NC(=O)[C@@H]3CCCN3C(=O)[C@H](NC(=O)OC)c3ccccc3)ccc2c2ccc(NC(=O)[C@@H]3CCCN3C(=O)[C@H](NC(=O)OC)c3ccccc3)cc21` [Example 22, dimethyl ((1R,1′R)-((2S,2′S)-(((9-(2-(2-methoxyethoxy)ethyl)-9H-carbazole-2,7-diyl)bis(azanediyl))bis(carbonyl))bis(pyrrolidine-2,1-diyl))bis(2-oxo-1-phenylethane-2,1-diyl))dicarbamate] here?
A: Its EC50 is 250 to 1250 pM.

same assay, conditions: Hepatitis C virus, 72 h; HCV genotype 1b replicon, Rluc, 3 days; read-out: Replicon EC50 1b type

Q: With `COC(=O)N[C@H](C(=O)N1CCC[C@H]1C(=O)Nc1ccc2c3ccc(NC(=O)[C@@H]4CCCN4C(=O)[C@@H](NC(=O)OC)c4ccccc4)cc3n(C)c2c1)c1ccccc1` [Example 8, dimethyl ((1S,1′S)-((2S,2′S)-(((9-methyl-9H-carbazole-2,7-diyl)bis(azanediyl))bis(carbonyl))bis(pyrrolidine-2,1-diyl))bis(2-oxo-1-phenylethane-2,1-diyl))dicarbamate] as the compound, how does the EC50 read?
A: Its EC50 is over 1000 pM.

Q: Which EC50 does the source give for `CC(C)[C@@H](C(=O)N1CCC[C@H]1C(=O)Nc1ccc2c3ccc(NC(=O)[C@@H]4CCCN4C(=O)[C@H](C(C)C)N4CCOC4=O)cc3n(C)c2c1)N1CCOC1=O` [Example 10, (2S,2′S)—N,N′-(9-methyl-9H-carbazole-2,7-diyl)bis(1-((S)-3-methyl-2-(2-oxazolidine-3-yl)butanoyl)pyrrolidine-2-carboxamide)] here?
A: Its EC50 is over 100000 pM.

Q: With `COCCOCCOCCn1c2cc(NC(=O)[C@@H]3CCCN3C(=O)[C@H](NC(=O)OC)c3ccccc3)ccc2c2ccc(NC(=O)[C@@H]3CCCN3C(=O)[C@H](NC(=O)OC)c3ccccc3)cc21` [Example 23, dimethyl ((1R,1′R)-((2S,2′S)-(((9-(2-(2-(2-methoxyethoxy)ethoxy)ethyl)-9H-carbazole-2,7-diyl)bis(azanediyl))bis(carbonyl))bis(pyrrolidine-2,1-diyl))bis(2-oxo-1-phenylethane-2,1-diyl))dicarbamate] as the compound, how does the EC50 read?
A: Its EC50 is over 1000 pM.

Q: Which EC50 does the source give for `COC(=O)N[C@@H](C(=O)N1CCC[C@H]1C(=O)Nc1ccc2c3ccc(NC(=O)[C@@H]4CCCN4C(=O)[C@H](NC(=O)OC)c4ccccc4)cc3n(Cc3ccccn3)c2c1)c1ccccc1` [Example 17, dimethyl ((1R,1′R)-((2S,2′S)-(((9-(pyridine-2-ylmethyl)-9H-carbazole-2,7-diyl)bis(azanediyl))bis(carbonyl))bis(pyrrolidine-2,1-diyl))bis(2-oxo-1-phenylethane-2,1-diyl))dicarbamate] here?
A: Its EC50 is 50 to 250 pM.

Q: For `COC(=O)N[C@@H](C(=O)N1CCC[C@H]1C(=O)Nc1ccc2c3ccc(NC(=O)[C@@H]4CCCN4C(=O)[C@H](NC(=O)OC)c4ccccc4)cc3n(CCN3CCN(C)CC3)c2c1)c1ccccc1` [Example 11], which EC50 is on record?
A: The EC50 was 10000 to 100000 pM.

Q: For `COC(=O)N[C@@H](C(=O)N1CCC[C@H]1C(=O)Nc1ccc2c3ccc(NC(=O)[C@@H]4CCCN4C(=O)[C@H](NC(=O)OC)c4ccccc4)cc3n(CCN3CCOCC3)c2c1)c1ccccc1` [Example 12, dimethyl ((1R,1′R)-((2S,2′S)-(((9-(2-morpholinoethyl)-9H-carbazole-2,7-diyl)bis(azanediyl))bis(carbonyl))bis(pyrrolidine-2,1-diyl))bis(2-oxo-1-phenylethane-2,1-diyl))carbamate], which EC50 is on record?
A: The EC50 was 1000 to 10000 pM.

Q: How did the EC50 turn out when `CCCCn1c2cc(NC(=O)C3CCCN3C(=O)[C@H](C(C)C)N3CCOC3=O)ccc2c2ccc(NC(=O)[C@@H]3CCCN3C(=O)[C@H](C(C)C)N3CCOC3=O)cc21` (stereo partly drawn) [Example 5, (2S,2′S)—N,N′-(9-butyl-9H-carbazole-2,7-diyl)bis(1-((S)-3-methyl-3-2-(2-oxooxazolidine-3-yl)butanoyl)pyrrolidine-2-carboxamide)] was run?
A: Its EC50 is over 100000 pM.

Q: Which EC50 does the source give for `COC(=O)N[C@@H](C(=O)N1CCC[C@H]1C(=O)Nc1ccc2c3ccc(NC(=O)[C@@H]4CCCN4C(=O)[C@H](NC(=O)OC)c4ccccc4)cc3n(Cc3cccnc3)c2c1)c1ccccc1` [Example 18, dimethyl ((1R,1′R)-((2S,2′S)-(((9-(pyridine-3-ylmethyl)-9H-carbazole-2,7-diyl)bis(azanediyl))bis(carbonyl))bis(pyrrolidine-2,1-diyl))bis(2-oxo-1-phenylethane-2,1-diyl))dicarbamate] here?
A: The EC50 was 50 to 250 pM.

Q: With `COC(=O)N[C@H](C(=O)N1CCC[C@H]1C(=O)Nc1ccc2c3ccc(NC(=O)[C@@H]4CCCN4C(=O)[C@@H](NC(=O)OC)C(C)C)cc3n(C)c2c1)C(C)C` [Example 9, dimethyl ((2S,2′S)-((2S,2′S)-(((9-methyl-9H-carbazole-2,7-diyl)bis(azanediyl))bis(carbonyl))bis(pyrrolidine-2,1-diyl))bis(3-methyl-1-oxobutane-1,2-diyl))dicarbamate] as the compound, how does the EC50 read?
A: The EC50 was over 100000 pM.

Q: With `CCCCn1c2cc(NC(=O)[C@@H]3CCCN3C(=O)[C@@H](NC(=O)OC)C(C)C)ccc2c2ccc(-c3c[nH]c([C@@H]4CCCN4C(=O)[C@@H](NC(=O)OC)C(C)C)n3)cc21` [Example 53, methyl ((S)-1-((S)-2-((9-butyl-7-(2-((S)-1-((methoxycarbonyl)-L-valyl)pyrrolidine-2-yl)-1H-imidazole-4-yl)-9H-carbazole-2-yl)carbamoyl)pyrrolidine-1-yl)-3-methyl-1-oxobutane-2-yl)carbamate] as the compound, how does the EC50 read?
A: The EC50 was over 10000 pM.

Q: `CCCCC(CCCC)n1c2cc(NC(=O)[C@@H]3CCCN3C(=O)[C@H](NC(=O)OC)c3ccccc3)ccc2c2ccc(NC(=O)[C@@H]3CCCN3C(=O)[C@H](NC(=O)OC)c3ccccc3)cc21` [Example 46, dimethyl ((1R,1′R)-((2S,2′S)-(((9-(nonane-5-yl)-9H-carbazole-2,7-diyl)bis(azanediyl))bis(carbonyl))bis(pyrrolidine-2,1-diyl))bis(2-oxo-1-phenylethane-2,1-diyl))dicarbamate] was tested. Which EC50 did it give?
A: The EC50 was about 10 pM.

Q: How did the EC50 turn out when `CCCCn1c2cc(NC(=O)C3CCCN3C(=O)[C@@H](NC(=O)OC)c3ccccc3)ccc2c2ccc(NC(=O)[C@@H]3CCCN3C(=O)[C@@H](NC(=O)OC)c3ccccc3)cc21` (stereo partly drawn) [Example 3, dimethyl ((1S,1′S)-((2S,2′S)-(((9-butyl-9H-carbazole-2,7-diyl)bis(azanediyl))bis(carbonyl))bis(pyrrolidine-2,1-diyl))bis(2-oxo-1-phenylethane-2,1-diyl))carbamate] was run?
A: The EC50 was over 1000 pM.

Q: For `CCCCn1c2cc(NC(=O)[C@@H]3CCCN3C(=O)[C@H](NC(=O)OC)C(C)C)ccc2c2ccc(NC(=O)[C@@H]3CCCN3C(=O)[C@H](NC(=O)OC)C(C)C)cc21` [Example 2, dimethyl ((2R,2′R)-((2S,2′S)-(((9-butyl-9H-carbazole-2,7-diyl)bis(azanediyl))bis(carbonyl))bis(pyrrolidine-2,1-diyl))bis(3-methyl-1-oxobutane-1,2-diyl))dicarbamate], which EC50 is on record?
A: Its EC50 is over 1000 pM.

Q: How did the EC50 turn out when `COCCOCCOc1cccc(Cn2c3cc(NC(=O)[C@@H]4CCCN4C(=O)[C@H](NC(=O)OC)c4ccccc4)ccc3c3ccc(NC(=O)[C@@H]4CCCN4C(=O)[C@H](NC(=O)OC)c4ccccc4)cc32)c1` [Example 40, dimethyl ((1R,1′R)-((2S,2′S)-(((9-(3-(2-(2-methoxyethoxy)ethoxy)benzyl)-9H-carbazole-2,7-diyl)bis(azanediyl))bis(carbonyl))bis(pyrrolidine-2,1-diyl))bis(2-oxo-1-phenylethane-2,1-diyl))dicarbamate] was run?
A: The EC50 was 10 to 100 pM.

Q: Which EC50 does the source give for `CCCCCCCCCCn1c2cc(NC(=O)[C@@H]3CCCN3C(=O)[C@H](NC(=O)OC)C(C)C)ccc2c2ccc(NC(=O)[C@@H]3CCCN3C(=O)[C@H](NC(=O)OC)C(C)C)cc21` [Example 25, dimethyl ((2R,2′R)-((2S,2′S)-(((9-decyl-9H-carbazole-2,7-diyl)bis(azanediyl))bis(carbonyl))bis(pyrrolidine-2,1-diyl))bis(3-methyl-1-oxobutane-1,2-diyl))dicarbamate] here?
A: Its EC50 is over 1000 pM.

Q: `CCCCCCOc1ccccc1Cn1c2cc(NC(=O)[C@@H]3CCCN3C(=O)[C@H](NC(=O)OC)c3ccccc3)ccc2c2ccc(NC(=O)[C@@H]3CCCN3C(=O)[C@H](NC(=O)OC)c3ccccc3)cc21` [Example 35, dimethyl ((1R,1′R)-((2S,2′S)-(((9-(2-(hexyloxy)benzyl)-9H-carbazole-2,7-diyl)bis(azanediyl))bis(carbonyl))bis(pyrrolidine-2,1-diyl))bis(2-oxo-1-phenylethane-2,1-diyl))dicarbamate] was tested. Which EC50 did it give?
A: The EC50 was about 1000 pM.

Q: For `CCCCn1c2cc(NC(=O)[C@@H]3CCCN3C(=O)[C@H](NC(=O)OC)c3ccccc3)ccc2c2ccc(NC(=O)[C@@H]3CCCN3C(=O)[C@H](NC(=O)OC)c3ccccc3)cc21` [Example 1, dimethyl ((1R,1′R)-((2S,2′S)-(((9-butyl-9H-carbazole-2,7-diyl)bis(azanediyl))bis(carbonyl))bis(pyrrolidine-2,1-diyl))bis(2-oxo-1-phenylethane-2,1-diyl))dicarbamate], which EC50 is on record?
A: Its EC50 is 10.4 pM.

Q: Which EC50 does the source give for `COC(=O)N[C@@H](C(=O)N1CCC[C@H]1C(=O)Nc1ccc2c3ccc(NC(=O)[C@@H]4CCCN4C(=O)[C@H](NC(=O)OC)c4ccccc4)cc3n(C)c2c1)c1ccccc1` [Example 6, dimethyl ((1R,1′R)-((2S,2′S)-(((9-methyl-9H-carbazole-2,7-diyl)bis(azanediyl))bis(carbonyl))bis(pyrrolidine-2,1-diyl))bis(2-oxo-1-phenylethane-2,1-diyl))dicarbamate] here?
A: Its EC50 is 19.5 pM.

Q: Which EC50 does the source give for `COC(=O)N[C@@H](C(=O)N1CCC[C@H]1C(=O)Nc1ccc2c3ccc(NC(=O)[C@@H]4CCCN4C(=O)[C@H](NC(=O)OC)C(C)C)cc3n(C)c2c1)C(C)C` [Example 7, dimethyl ((2R,2′R)-((2S,2′S)-(((9-methyl-9H-carbazole-2,7-diyl)bis(azanediyl))bis(carbonyl))bis(pyrrolidine-2,1-diyl))bis(3-methyl-1-oxobutane-1,2-diyl))dicarbamate] here?
A: The EC50 was over 1000 pM.
